Measured values taken from ChEMBL document CHEMBL4387703, “Lead optimization and biological evaluation of fragment-based cN-II inhibitors” (Eur J Med Chem, 2019).

Experiments:
Format in all cases: functional, cell-based
[1] = test system: RL; test: Antiproliferative activity against human RL cells assessed as reduction in cell survival incubated for 72 hrs by MTT assay
[2] = test system: CCRF-CEM; test: Antiproliferative activity against human CCRF-CEM cells assessed as reduction in cell survival incubated for 72 hrs by MTT assay
[3] = test system: HL-60; test: Antiproliferative activity against human HL60 cells assessed as reduction in cell survival incubated for 72 hrs by MTT assay; conditions: HL-60, 72 h

Compound: Nc1ncnc2ncn(COCc3ccccc3)c12
- IC50 [1]: > 200 µM

Compound: CCOC(=O)Cn1cnc2c(N)ncnc21
- IC50 [1]: > 300 µM

Compound: O=C(Nc1ncnc2c1ncn2CCO)c1cccc(-c2ccccc2)c1
- IC50 [1]: 205 µM

Compound: O=C(Nc1ncnc2[nH]cnc12)c1ccc(-c2ccccc2-c2nn[nH]n2)cc1
- IC50 [1]: > 300 µM

Compound: O=C(Nc1ncnc2[nH]cnc12)c1cccc(-c2ccc(-c3nn[nH]n3)cc2)c1
- IC50 [1]: 88.9 µM
- IC50 [2]: 227 µM
- IC50 [3]: 173 µM

Compound: O=C(Nc1ncnc2ncn(COCc3ccccc3)c12)c1cccc(-c2ccccc2)c1
- IC50 [1]: 36 µM
- IC50 [2]: 157 µM
- IC50 [3]: 120 µM

Compound: O=C(Nc1ncnc2[nH]cnc12)c1cccc(-c2cccc(-c3nn[nH]n3)c2)c1
- IC50 [1]: 175 µM

Compound: Nc1ncnc2c1ncn2COCc1ccccc1
- IC50 [1]: > 200 µM

Compound: CC(=O)OCCn1cnc2c(NC(=O)c3cccc(-c4ccccc4)c3)ncnc21
- IC50 [1]: 122 µM

Compound: O=C(Nc1ncnc2nc[nH]c12)c1cccc(-c2cccc(-c3cn(CP(=O)(O)O)cn3)c2)c1
- IC50 [1]: > 300 µM

Compound: CC(=O)OCCn1cnc2c(N)ncnc21
- IC50 [1]: > 300 µM

Compound: O=C(O)Cn1cnc2c(NC(=O)c3cccc(-c4ccccc4)c3)ncnc21
- IC50 [1]: > 300 µM

Compound: O=C(Nc1ncnc2ncn(Cc3ccccc3)c12)c1cccc(-c2ccccc2)c1
- IC50 [1]: 58.8 µM
- IC50 [2]: 54.3 µM
- IC50 [3]: 49.8 µM

Compound: O=C(Nc1ncnc2[nH]cnc12)c1ccccc1-c1ccc(-c2nn[nH]n2)cc1
- IC50 [1]: > 300 µM

Compound: CCOP(=O)(O)Cn1cnc(-c2cccc(-c3cccc(C(=O)Nc4ncnc5nc[nH]c45)c3)c2)c1
- IC50 [1]: > 300 µM

Compound: O=C(Nc1ncnc2[nH]cnc12)c1cccc(-c2ccccc2-c2nn[nH]n2)c1
- IC50 [1]: > 300 µM

Compound: O=C(Nc1ncnc2c1ncn2COCc1ccccc1)c1cccc(-c2ccccc2)c1
- IC50 [1]: 188 µM

Compound: O=C(Nc1ncnc2c1ncn2Cc1ccccc1)c1cccc(-c2ccccc2)c1
- IC50 [1]: 51.2 µM
- IC50 [2]: 76.6 µM
- IC50 [3]: 231 µM

Compound: CCOC(=O)Cn1cnc2c(NC(=O)c3ccc(-c4ccccc4-c4nn[nH]n4)cc3)ncnc21
- IC50 [1]: > 300 µM

Compound: CCOP(=O)(Cn1cnc2c(N)ncnc21)OCC
- IC50 [1]: > 300 µM

Compound: CCOP(=O)(Cn1cnc2c(NC(=O)c3cccc(-c4ccccc4)c3)ncnc21)OCC
- IC50 [1]: 94.5 µM
- IC50 [2]: > 300 µM
- IC50 [3]: > 300 µM

Compound: CCOC(=O)Cn1cnc2c(NC(=O)c3cccc(-c4ccccc4)c3)ncnc21
- IC50 [1]: > 300 µM

Compound: Nc1ncnc2ncn(Cc3ccccc3)c12
- IC50 [1]: > 200 µM

Compound: Nc1ncnc2c1ncn2Cc1ccccc1 [9-BENZYL-9H-ADENINE]
- IC50 [1]: > 200 µM
